Earlier results in US6776977B2, “Polypodal chelants for metallopharmaceuticals” (Bristol-Myers Squibb Pharma Company, priority 2001, dated 2004).

Conditions: decomposition under acidic conditions

Kobs: 0.0012 s⁻¹
Structure (SMILES): O=C([O-])CN(CCN(CC(=O)[O-])CC(=O)[O-])CCN(CC(=O)[O-])CC(=O)[O-].[Gd+3] [Gd(DTPA)^2−]
